Series [1] can be described thus: Thin layer chromatographic assay of lung samples for BDP metabolism. The series is classed as in vivo, rat. The settings on record: thin layer chromatography.
Series [2] can be described thus: Partition between octanol and phosphate buffer saline. The series is classed as physicochemical. The conditions noted are these: pH 7.4. From the text: Nearly all (95%) of the BDP was associated with the octanol.
For series [3] the following is noted: rat, in vivo.
Experimental: The amount of drug in the lungs at time zero can be used to determine the amount of free drug in the formulation, since free drug is very rapidly absorbed from the lungs (Dose=free drug+amount in lungs at t=0). This amount also includes any liposome associated drug that was rapidly released ("burst" effect).
The absorption kinetics (sustained release) was determined by measuring percentage of ^14 C BDP remaining in the lungs following the intratracheal instillation of the above described five liposome formulations and one intravenous administration of free drug.
All studies were performed in male Sprague-Dawley rats weighing 250 to 450 g. After fasting for 16 hours, animals were anesthetized by i.m. injection of ketamine (25 mg/kg), xylazine (5 mg/kg) and acepromazine (0.5 mg/ml). During the procedure the animal's body temperature was maintained with a 37° C. heating pad. Additional anesthetic was administered as required, using half the original dose. A midline incision was made in the neck and the right jugular vein and left carotid artery were cannulated with short lengths of polyethylene tubing to which a 23 ga Luer stub adapter (Clay Adams #7565) and plastic 3-way stopcock (Argyle #173518) were attached. Blood samples (0.5-4 ml) were removed from the carotid arterial cannula after first flushing with fresh blood to clear the line. Blood volume removed was replaced with an equal volume of 5% dextrose solution containing 50 U/ml of heparin via the jugular cannula. For intravenous (i.v.) injection studies, drug was injected into the venous cannula with a 500 ul glass syringe via a 22 ga needle and injection cap and flushed with 0.5 to 1.0 ml dextrose solution.
For intratracheal (i.t.) instillation of BDP formulations, (Table V) the trachea was cannulated with a 4 cm long section of Teflon tubing (1.2 mm I.D.), inserted at the level of the fifth tracheal ring below the thyroid cartilage and tied in place with a suture. Excess fluid in the trachea was aspirated through tubing attached to a syringe. […]
Series [4] has as its system chronic relapsing Stage II and III pulmonary sarcoidosis. The conditions noted are these: 1200 or 2400 ug daily inhaled via Nebuhaler; cited from earlier work.

In the case of `CCC(=O)OCC(=O)[C@@]1(OC(=O)CC)[C@@H](C)C[C@H]2[C@@H]3CCC4=CC(=O)C=C[C@]4(C)[C@@]3(Cl)[C@@H](O)C[C@@]21C` [Beclomethasone dipropionate, beclomethasone dipropionate], in series [1], the “metabolism of BDP prior to leaving the lungs” value was “no detectable metabolism of BDP prior to leaving the lungs”. Besides, in series [2], the “BDP associated with the octanol” value came to 95%. In addition, in series [3], the “drug absorbed before the first time point” value is reported as “over 98%”. Also, in series [3] (0.008 mg/kg), the “apparent half-life in lungs (elimination of released radiolabel, not absorption)” value was found to be 3.0 h. Besides, the “^14 C BDP removed from the lungs (absorbed)” value in series [3] (0.5 h) turned out to be 99.7%.
For the compound `CCCC1O[C@@H]2C[C@H]3[C@@H]4CCC5=CC(=O)C=C[C@]5(C)[C@H]4[C@@H](O)C[C@]3(C)[C@]2(C(=O)CO)O1` (stereo partly drawn) [budesonide], in series [4], the “improvement in pulmonary sarcoidosis” value was “showed improvement in chronic relapsing Stage II and III pulmonary sarcoidosis”.

The values are drawn from patent US5049389A, “Novel liposome composition for the treatment of interstitial lung diseases” (priority 1989, dated 1991).
